{
  "source": "patent US9102967B2",
  "about": "“PmST2 enzyme for chemoenzymatic synthesis of α-2-3-sialylglycolipids” (priority 2012, dated 2015)",
  "key": {"MBP-PmST2-His6 [1]": {"target": "T1, MBP-PmST2-His6 (Pasteurella multocida, UniProt Q9CNC4, M25T)", "T1 construct": "used to clone of the full-length MBP-PmST2-His6 fusion protein in pMa1-c4X vector; made in house; host or cells: E. coli BL21(DE3)", "type": "biochemical", "conditions": "MnCl2/MgCl2 1, 5, 10 or 20 mM; EDTA or 2-ME 1 or 10 mM; acceptor LacβPro-triazole-C14", "protocol": "Reactions were carried out in duplicate at 37° C. for 15 min in a total volume of 15 μl in a Tris-HCl buffer (200 mM, pH 8.0) containing LacβPro-triazole-C14 (2 mM), CMP-Neu5Ac (8 mM), 0.3% Triton X-100, and the enzyme (2.4 μg μl^−1). For metal effects, various concentrations (1, 5, 10, or 20 mM) of MgCl2 or MnCl2 were added and ethylenediaminetetraacetic acid (EDTA as chelating agent was used at two concentrations (1 or 10 mM). A reducing reagent 2-mercaptoethanol (2-ME) was used at two concentrations (1 or 10 mM). Reaction without metal ions, EDTA, or 2-ME was used as a control. All reactions were stopped by adding 15 μl of pre-chilled 95% ethanol and the reaction mixtures were kept on ice. The samples were centrifuged at 13,000 rpm for 5 min before the supernatants were analyzed by CE as described above."}, "MBP-PmST2-His6 [2]": {"target": "T1, MBP-PmST2-His6", "experiment": "Acceptor substrate specificity studies (CE analysis)", "type": "biochemical", "conditions": "for % product formation: acceptor 2 mM, CMP-Neu5Ac 4 mM, 10 min, 37° C., pH 8.0, 0.4% Triton X-100; for % Relative: relative to LacβPro-triazole-C14 = 100", "protocol": "Enzymatic Reactions. All reactions were carried out in duplicate for 10 min at 37° C. in a total volume of 10 μl in Tris-HCl (200 mM, pH 8.0) containing an acceptor substrate (2 mM), CMP-Neu5Ac (4 mM), 0.4% Triton X-100, and enzyme (3.6 μg μl^−1). Addition of 15 μl of cold 95% ethanol was used to terminate each reaction. All reactions were incubated on ice for 10 min and were then centrifuged for 5 min at 13,000 rpm. The supernatant was transferred to a new vial for CE analysis."}, "[3]": {"system": "N. meningitidis (MC58 and 406Y) Lst", "conditions": "previous report; cited from earlier work"}, "PmST1 [4]": {"target": "T2, PmST1 (Pasteurella multocida, UniProt Q15KI8)", "T2 sequence (Q15KI8 entry or part of it)": "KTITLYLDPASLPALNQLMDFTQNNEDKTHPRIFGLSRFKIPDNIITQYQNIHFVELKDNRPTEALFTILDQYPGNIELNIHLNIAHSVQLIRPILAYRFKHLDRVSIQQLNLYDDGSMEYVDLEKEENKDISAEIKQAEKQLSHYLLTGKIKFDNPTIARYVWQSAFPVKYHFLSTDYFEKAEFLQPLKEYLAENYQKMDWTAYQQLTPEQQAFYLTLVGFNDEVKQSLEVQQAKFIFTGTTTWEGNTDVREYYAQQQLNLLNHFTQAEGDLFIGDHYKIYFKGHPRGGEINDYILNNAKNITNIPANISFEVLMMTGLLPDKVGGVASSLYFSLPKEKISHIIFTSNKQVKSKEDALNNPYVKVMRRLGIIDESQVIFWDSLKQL", "conditions": "cited from earlier work"}, "MBP-PmST2-His6 [5]": {"target": "T1, MBP-PmST2-His6", "type": "biochemical", "conditions": "for Km / kcat / Vmax: apparent, 37° C.; for Km: Tris-HCl pH 8.0, 0.3% Triton X-100, varied substrate, other fixed (LacβPro-triazole-C14 2.0 mM or CMP-Neu5Ac 4.0 mM); for kcat: pH 8.0; for Vmax: pH 8.0, enzyme 14 μM", "protocol": "Reactions were carried out at 37° C. for […] in a total volume of 15 μl in Tris-HCl buffer (200 mM, pH 8.0) containing 2-mercaptoethanol (1 mM), 0.3% Triton X-100, enzyme (14 μM), with varied CMP-Neu5Ac concentrations (0.25, 0.5, 1.0, 2.0, 5.0, and 10.0 mM) and a fixed LacβPro-triazole-C14 (2.0 mM) concentration, or varied LacβPro-triazole-C14 concentrations (0.5, 1.0, 2.0, 5.0, 10.0, and 20.0 mM) or varied LacβPro2AA concentrations (0.5, 1.0, 2.0, 5.0, 10.0, and 25.0 mM) and a fixed CMP-Neu5Ac concentration (4.0 mM). HPLC assays were used for reactions with LacβPro2AA as the sialyltransferase acceptor and CE assays were used for reactions with LacβPro-triazole-C14 as the sialyltransferase acceptor. Apparent kinetic parameters were obtained by fitting the data (the average values of duplicate assay results) into the Michaelis-Menten equation using Grafit 5.0."}, "MBP-PmST2-His6 [6]": {"target": "T1, MBP-PmST2-His6", "experiment": "Time-course study of α-2,3-sialyltransferase activity", "type": "biochemical", "conditions": "acceptor 2 mM, CMP-Neu5Ac 8 mM, 37° C., pH 8.0", "protocol": "(§1) Enzymatic reactions were performed in a total volume of 20 μl (when LacβPro2AA was used as an acceptor) or 40 μl (when LacβPro-triazole-C 14 was used as an acceptor) in a Tris-HCl buffer (200 mM, pH 8.0) containing an acceptor (2 mM of LacβPro2AA or LacβPro-triazole-C14), CMP-Neu5Ac (8 mM), 0.3% Triton X-100, and a sialyltransferase ([…] MBP-PmST2-His6 or PmST1) at 37° C. At different time points (0, 1, 5, 10, 15, 20, 30, and 60 min), 1.5 μl aliquots were taken from the LacβPro2AA reaction and pre-chilled 12% acetonitrile aqueous solution (148.5 μl) was added to each aliquot. Similarly, 3.5 μl aliquots were taken from the LacβPro-triazole-C14 reaction at different time points and pre-chilled 95% ethanol (7 μl) was added to each aliquot. All samples were kept on ice for 10 min and then centrifuged for 5 min at 13,000 rpm. Supernatants from LacβPro2AA reactions were analyzed by a Shimadzu LC-2010A HPLC system equipped with a membrane on-line degasser, a temperature control unit, and a fluorescence detector (the excitation wavelength was set at 315 nm and the emission wavelength was set at 400 nm) using a reverse phase Premier C18 column (250×4.6 mm I.D., 5 μm particle size, Shimadzu) protected with a C18 guard column cartridge. Mobile phase used was 12% acetonitrile in water. Supernatants from LacβPro-triazole-C14 reactions were analyzed by a Beckman P/ACE MDQ capillary electrophoresis (CE) system (60 cm×75 μm i.d.) equipped with a PDA detector (optimal absorption at 214 nm). The running buffer used was sodium borate buffer (50 mM, pH 10.2) containing β-cyclcodextrin (20 mM)."}, "PmST1 [7]": {"target": "T2, PmST1", "experiment": "Time-course study of α-2,3-sialyltransferase activity", "type": "biochemical", "protocol": "as §1"}, "MBP-PmST2-His6 [8]": {"target": "T1, MBP-PmST2-His6", "experiment": "pH profile of α2-3-sialyltransferase reaction", "type": "biochemical", "conditions": "acceptor 2 mM, 0.3% Triton X-100", "protocol": "Each reaction was carried out in duplicate at 37° C. for 15 min in a buffer (200 mM) with a total volume of 15 μl containing an acceptor (2 mM, LacβPro2AA or LacβPro-triazole-C14), CMP-Neu5Ac (8 mM), 0.3% Triton X-100, and the enzyme MBP-PmST2-His6 (2.4 μg μl^−1). Buffers used were: NaOAc-HOAc (pH 4.0-6.0), Tris-HCl (pH 7.0-9.0), and CHES (pH 10.0). Enzymatic reactions were terminated by adding 15 μl of pre-chilled 95% ethanol. All samples were kept on ice for 10 min and then centrifuged at 13,000 rpm for 5 min. Supernatants were analyzed by HPLC (for LacβPro2AA reaction) or CE (for LacβPro-triazole-C14 reaction) as described above for the time course studies."}},
  "data": [
    {"compound": "OCCS", "note": "[2-mercaptoethanol, reference compound]", "values": [
      {"measurement": "effect on α2,3-sialyltransferase activity (in words)", "setting": "MBP-PmST2-His6 [1]", "value": "did not affect"}
    ]},
    {"compound": "O=C(O)CN(CCN(CC(=O)O)CC(=O)O)CC(=O)O", "note": "[EDTA, ethylenediaminetetraacetic acid, reference compound]", "values": [
      {"measurement": "effect on α2,3-sialyltransferase activity (in words)", "setting": "MBP-PmST2-His6 [1]", "value": "did not affect the activity significantly"}
    ]},
    {"compound": "CCCCCCCCCCCCCCc1cn(CCCO[C@H]2O[C@H](CO)[C@H](O)[C@H](O[C@@H]3O[C@H](CO)[C@H](O)[C@H](O)[C@H]3O)[C@H]2NC(C)=O)nn1", "note": "[Galβ1-3GalNAcαPro-triazole-C14]", "values": [
      {"measurement": "% product formation", "setting": "MBP-PmST2-His6 [2]", "value": "<2", "unit": "%"},
      {"measurement": "% Relative", "setting": "MBP-PmST2-His6 [2]", "value": "<6", "unit": "%"}
    ]},
    {"compound": "CCCCCCCCCCCCCCc1cn(CCCOC2OC(CO)C(O)C(OC3OC(CO)C(O)C(O)C3O)C2NC(C)=O)nn1", "note": "(stereo not shown) [Galβ1-3GlcNAcβPro-triazole-C14]", "values": [
      {"measurement": "% product formation", "setting": "MBP-PmST2-His6 [2]", "value": "<4", "unit": "%"},
      {"measurement": "% Relative", "setting": "MBP-PmST2-His6 [2]", "value": "<11", "unit": "%"}
    ]},
    {"compound": "CCCCCCCCCCCCCCc1cn(CCCOC2OC(CO)C(O)C(O)C2O)nn1", "note": "(stereo not shown) [GalβPro-triazole-C14]", "values": [
      {"measurement": "% product formation", "setting": "MBP-PmST2-His6 [2]", "value": "9.2 ± 1.3", "unit": "%"},
      {"measurement": "% Relative", "setting": "MBP-PmST2-His6 [2]", "value": 25.5, "unit": "%"}
    ]},
    {"compound": "[Cl-].[Cl-].[Mg+2]", "note": "[MgC12, MgCl2]", "values": [
      {"measurement": "effect on α2,3-sialyltransferase activity (in words)", "setting": "MBP-PmST2-His6 [1]", "value": "did not affect the activity significantly"},
      {"measurement": "stimulation of activity", "setting": "[3]", "value": 2, "unit": "fold"},
      {"measurement": "effect on sialyltransferase activity of PmST1 (in words)", "setting": "PmST1 [4]", "value": "does not stimulate or change the sialyltransferase activity"}
    ]},
    {"compound": "[Cl][Mn][Cl]", "note": "[MnC12, MnCl2]", "values": [
      {"measurement": "effect on α2,3-sialyltransferase activity (in words)", "setting": "MBP-PmST2-His6 [1]", "value": "did not affect the activity significantly"},
      {"measurement": "stimulation of activity", "setting": "[3]", "value": 3, "unit": "fold"},
      {"measurement": "effect on sialyltransferase activity of PmST1 (in words)", "setting": "PmST1 [4]", "value": "activity decreases"}
    ]},
    {"compound": "Galβ1-3GlcNAcαPro-triazole-C14", "values": [
      {"measurement": "% product formation", "setting": "MBP-PmST2-His6 [2]", "value": "<2", "unit": "%"},
      {"measurement": "% Relative", "setting": "MBP-PmST2-His6 [2]", "value": "<6", "unit": "%"}
    ]},
    {"compound": "Galβ1-4GlcNAcβPro-triazole-C14 [LacNAcβPro-triazole-C14]", "values": [
      {"measurement": "% product formation", "setting": "MBP-PmST2-His6 [2]", "value": "18.5 ± 2.7", "unit": "%"},
      {"measurement": "% Relative", "setting": "MBP-PmST2-His6 [2]", "value": 51.2, "unit": "%"}
    ]},
    {"compound": "Galβ1-4GlcβPro-triazole-C14 [LacβPro-triazole-C14]", "values": [
      {"measurement": "fold difference in KM values (stronger binding) versus LacβPro2AA", "setting": "MBP-PmST2-His6 [5]", "value": 7, "unit": "fold"},
      {"measurement": "Km", "setting": "MBP-PmST2-His6 [5]", "value": "4100 ± 300", "unit": "µM"},
      {"measurement": "kcat", "setting": "MBP-PmST2-His6 [5]", "value": "0.2 ± 0.017", "unit": "s⁻¹"},
      {"measurement": "Vmax", "setting": "MBP-PmST2-His6 [5]", "value": "(1.7 ± 0.1) × 10^−1 mM min^−1"},
      {"measurement": "fold higher catalytic activity versus LacβPro2AA as acceptor", "setting": "MBP-PmST2-His6 [5]; from differences in KM and kcat", "value": 10, "unit": "fold"},
      {"measurement": "acceptor substrate for PmST2 (in words)", "setting": "MBP-PmST2-His6 [2]", "value": "best acceptor substrate"},
      {"measurement": "% product formation", "setting": "MBP-PmST2-His6 [2]", "value": "36.1 ± 1.5", "unit": "%"},
      {"measurement": "% Relative", "setting": "MBP-PmST2-His6 [2]", "value": 100, "unit": "%"},
      {"measurement": "sialylation achieved in 1 hour", "setting": "MBP-PmST2-His6 [6]", "value": 60, "unit": "%"},
      {"measurement": "time at which the sialyltransferase reaction reached optimum", "setting": "PmST1 [7]; acceptor 2 mM, CMP-Neu5Ac 8 mM, 37° C., pH 8.0", "value": 15, "unit": "min"},
      {"measurement": "product formation at optimum", "setting": "PmST1 [7]; at 15 min", "value": "less than 5%"},
      {"measurement": "optimal pH range with this acceptor", "setting": "MBP-PmST2-His6 [8]", "value": "5.0-8.0"}
    ]},
    {"compound": "cytidine 5′-monophosphate N-acetylneuraminic acid [CMP-Neu5Ac, reference compound]", "values": [
      {"measurement": "Km", "setting": "MBP-PmST2-His6 [5]", "value": "1300 ± 100", "unit": "µM"},
      {"measurement": "kcat", "setting": "MBP-PmST2-His6 [5]", "value": "0.0883 ± 0.0067", "unit": "s⁻¹"},
      {"measurement": "Vmax", "setting": "MBP-PmST2-His6 [5]", "value": "(7.4 ± 0.5) × 10^−2 mM min^−1"}
    ]},
    {"compound": "lactosyl ceramide [reference compound]", "values": [
      {"measurement": "acceptor substrate for PmST2 (in words)", "setting": "MBP-PmST2-His6 [2]", "value": "not an acceptor"}
    ]}
  ]
}
